Patent publication US6583180B2, “Glucocorticoid receptor modulators” (Abbott Laboratories, priority 2001, dated 2003)

Columns and labels:
[1] = biological target: T1, Human glucocorticoid receptors (Homo sapiens, UniProt P04150); test: Radioligand filter binding assay, displacement of 3[H]-dexamethasone from hGR; settings: read-out: GR Binding (% Inhibition at 1.7 μM)
T1 construct: made in house; host or cells: Sf9 insect cells, recombinant baculovirus (BAC-TO-BAC)
T1 sequence (P04150 1-777): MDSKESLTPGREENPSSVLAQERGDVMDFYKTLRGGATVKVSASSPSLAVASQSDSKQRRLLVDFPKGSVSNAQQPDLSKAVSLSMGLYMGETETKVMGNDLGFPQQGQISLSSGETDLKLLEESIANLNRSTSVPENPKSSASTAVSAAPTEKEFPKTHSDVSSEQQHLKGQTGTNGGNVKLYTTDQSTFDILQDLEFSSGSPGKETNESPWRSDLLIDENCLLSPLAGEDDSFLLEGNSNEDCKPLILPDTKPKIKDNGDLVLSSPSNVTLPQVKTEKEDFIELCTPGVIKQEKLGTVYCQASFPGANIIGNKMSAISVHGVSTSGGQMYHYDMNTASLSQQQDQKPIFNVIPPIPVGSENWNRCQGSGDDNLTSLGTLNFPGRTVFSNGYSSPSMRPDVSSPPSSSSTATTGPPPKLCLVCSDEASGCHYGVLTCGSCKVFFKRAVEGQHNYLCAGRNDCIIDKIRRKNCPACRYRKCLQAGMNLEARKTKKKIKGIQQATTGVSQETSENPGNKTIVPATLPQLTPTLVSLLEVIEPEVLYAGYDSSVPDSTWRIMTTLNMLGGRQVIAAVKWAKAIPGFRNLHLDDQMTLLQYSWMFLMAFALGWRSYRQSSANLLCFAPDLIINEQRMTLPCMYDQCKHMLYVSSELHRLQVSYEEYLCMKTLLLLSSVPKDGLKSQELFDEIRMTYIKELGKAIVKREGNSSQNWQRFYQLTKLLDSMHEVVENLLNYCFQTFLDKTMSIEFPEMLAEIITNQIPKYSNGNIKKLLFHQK
Summary of the method: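 Recombinant hGR extract from baculovirus-infected Sf9 cells (final ~1 nM receptor) incubated with ³H-dexamethasone and test compound dilutions in duplicate, EDTA/phosphate pH 8 buffer with MTG, overnight (15-20 h) at +4° C. Bound label collected on PEI-treated GF/B filters and scintillation-counted; IC50 from four-parameter fit of corrected cpm.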

[2] = biological target: T2, progesterone receptor (PR) (Homo sapiens, UniProt P06401); test: Radioligand binding assay for progesterone receptor (similar protocol);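 also: radioligand binding measured with cytosol preparations containing the human progesterone receptor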
T2 sequence (P06401 1-933): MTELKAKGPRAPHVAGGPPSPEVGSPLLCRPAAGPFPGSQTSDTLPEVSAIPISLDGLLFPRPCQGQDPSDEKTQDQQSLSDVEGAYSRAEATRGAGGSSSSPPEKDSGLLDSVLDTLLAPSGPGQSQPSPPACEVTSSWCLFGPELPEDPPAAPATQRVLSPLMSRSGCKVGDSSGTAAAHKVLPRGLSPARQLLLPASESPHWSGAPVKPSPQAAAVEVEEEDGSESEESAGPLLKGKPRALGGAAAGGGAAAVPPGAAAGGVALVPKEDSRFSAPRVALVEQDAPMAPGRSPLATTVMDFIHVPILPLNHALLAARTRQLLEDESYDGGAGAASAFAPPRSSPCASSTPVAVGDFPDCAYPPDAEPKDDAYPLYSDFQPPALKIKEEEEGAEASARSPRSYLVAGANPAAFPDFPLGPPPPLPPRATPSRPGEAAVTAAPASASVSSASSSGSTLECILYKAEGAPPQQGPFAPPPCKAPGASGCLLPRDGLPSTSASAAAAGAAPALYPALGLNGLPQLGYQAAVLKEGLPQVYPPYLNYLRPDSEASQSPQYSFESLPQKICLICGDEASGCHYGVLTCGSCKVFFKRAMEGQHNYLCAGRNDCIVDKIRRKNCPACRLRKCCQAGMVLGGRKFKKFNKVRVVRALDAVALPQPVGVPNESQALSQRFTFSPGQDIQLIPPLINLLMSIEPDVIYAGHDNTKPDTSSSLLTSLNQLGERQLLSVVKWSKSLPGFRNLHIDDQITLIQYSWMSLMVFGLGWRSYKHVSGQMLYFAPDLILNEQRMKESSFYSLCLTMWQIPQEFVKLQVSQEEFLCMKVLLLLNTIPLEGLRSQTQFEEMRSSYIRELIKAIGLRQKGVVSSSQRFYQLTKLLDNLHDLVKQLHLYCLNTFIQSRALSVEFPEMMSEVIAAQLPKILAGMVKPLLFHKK
Excerpt: Methods for Radiolipand Binding Studies with Human Glucocorticoid and Progesterone Receptor Cytosol

Q: Which results are given for `Cc1c(NS(C)(=O)=O)cccc1N(Cc1ccccc1)Cc1ccc(Oc2ccc(CCCCO)cc2)cc1` [Example 101, N-[3-(benzyl{4-[4-(4-hydroxybutyl)phenoxy]benzyl}amino)-2-methylphenyl]methanesulfonamide]?
A: inhibition at 1.7 µM [1]: 92.9%; IC50 [2]: 1030 nM

Q: `Cc1c(NS(C)(=O)=O)cccc1N(Cc1ccccc1)Cc1ccc(OCC=CBr)cc1` [Example 35, N-{3-[benzyl(4-{[3-bromo-2-propenyl]oxy}benzyl)amino]-2-methylphenyl}methanesulfonamide] was tested. Which IC50 [2] did it give?
A: > 10000 nM

Q: Which inhibition at 1.7 µM [1] does the source give for `Cc1c(NS(C)(=O)=O)cccc1N(Cc1ccc(Oc2cccc(OCC(=O)O)c2)cc1)Cc1ccc(Cl)cc1F` [Example 83, (3-{4-[((4-chloro-2-fluorobenzyl){2-methyl-3-[(methylsulfonyl)amino]phenyl}amino)methyl]phenoxy}phenoxy)acetic acid] here?
A: 98.1%

Q: And the IC50 [2]?
A: 177 nM

Q: `Cc1c(NS(C)(=O)=O)cccc1N(Cc1ccccc1)Cc1ccc(F)cc1` [Example 9, N-{3-[benzyl(4-fluorobenzyl)amino]-2-methylphenyl}methanesulfonamide] was tested. Which IC50 [2] did it give?
A: 4050 nM

Q: What does the source list for `Cc1c(NS(C)(=O)=O)cccc1N(Cc1ccc(Oc2ccc(Cl)c(O)c2)cc1)Cc1ccc(F)cc1F` [Example 322, N-(3-((4-(4-chloro-3-hydroxyphenoxy)benzyl)(2,4-difluorobenzyl)amino)-2-methylphenyl)methanesulfonamide]?
A: inhibition at 1.7 µM [1]: 98.5%; IC50 [2]: 360 nM

Q: `Cc1c(NS(C)(=O)=O)cccc1N(Cc1ccccc1)Cc1ccc(Cl)cc1` [Example 29, N-{3-[benzyl(4-chlorobenzyl)amino]-2-methylphenyl}methanesulfonamide] was tested. Which IC50 [2] did it give?
A: > 10000 nM

Q: For `Cc1c(NS(C)(=O)=O)cccc1N(Cc1ccccc1)Cc1ccc(Oc2cccc(OCCCN(C)C)c2)cc1` [Example 72, N-{3-[benzyl(4-{3-[3-(dimethylamino)propoxy]phenoxy}benzyl)amino]-2-methylphenyl}methanesulfonamide], which inhibition at 1.7 µM [1] is on record?
A: 92%

Q: And the IC50 [2]?
A: 462 nM

Q: For `COCOc1ccc(Oc2ccc(CN(Cc3ccccc3)c3cccc(NS(C)(=O)=O)c3C)cc2)cc1` [Example 97, N-[3-(benzyl{4-[4-(methoxymethoxy)phenoxy]benzyl}amino)-2-methylphenyl]methanesulfonamide], which IC50 [2] is on record?
A: 772 nM

Q: How did the IC50 [2] turn out when `Cc1c(NS(C)(=O)=O)cccc1N(Cc1ccccc1)Cc1ccc(Oc2cccc(OCC(=O)O)c2)cc1` [Example 62, (3-{4-[(benzyl{2-methyl-3-[(methylsulfonyl)amino]phenyl}amino)methyl]phenoxy}phenoxy)acetic acid] was run?
A: 246 nM

Q: For `Cc1c(NS(C)(=O)=O)cccc1N(Cc1ccc(Oc2ccc(CCC(=O)O)cc2)cc1)Cc1ccc(F)cc1F` [Example 50, N-{3-[(4-(4-(2-carboxyethyl)phenoxy)benzyl)(2,4-difluorobenzyl)amino]-2-methylphenyl}methanesulfonamide], which IC50 [2] is on record?
A: 190 nM

Q: With `Cc1c(NS(C)(=O)=O)cccc1N(Cc1ccc(Br)cc1)Cc1ccc(Oc2ccccc2)cc1` [Example 103, N-{3-[(4-bromobenzyl)(4-phenoxybenzyl)amino]-2-methylphenyl}methanesulfonamide] as the compound, how does the IC50 [2] read?
A: 78.3 nM

Q: `Cc1c(NS(C)(=O)=O)cccc1N(Cc1ccc(F)cc1F)Cc1ccc(F)cc1F` [Example 24, N-{3-[bis(2,4-difluorobenzyl)amino]-2-methylphenyl}methanesulfonamide] was tested. Which IC50 [2] did it give?
A: 2590 nM

Q: How did the IC50 [2] turn out when `Cc1c(NS(C)(=O)=O)cccc1N(Cc1ccccc1)Cc1ccc(Oc2ccc(C(=O)O)cc2)cc1` [Example 96, 4-{4-[(benzyl{2-methyl-3-[(methylsulfonyl)amino]phenyl}amino)methyl]phenoxy}benzoic acid] was run?
A: > 1000 nM

Q: For `Cc1c(NS(C)(=O)=O)cccc1N(Cc1ccccc1F)Cc1ccc(Cl)cc1F` [Example 145, N-{3-[(4-chloro-2-fluorobenzyl)(2-fluorobenzyl)amino]-2-methylphenyl}methanesulfonamide], which IC50 [2] is on record?
A: 357 nM

Q: Which IC50 [2] does the source give for `COc1ccc(CN(Cc2ccc(F)cc2F)c2cccc(NS(C)(=O)=O)c2C)cc1` [Example 22, N-{3-[(2,4-difluorobenzyl)(4-methoxybenzyl)amino]-2-methylphenyl}methanesulfonamide] here?
A: 1480 nM

Q: With `Cc1c(NS(C)(=O)=O)cccc1N(Cc1ccccc1)Cc1ccc(F)cc1F` [Example 10, N-{3-[benzyl(2,4-difluorobenzyl)amino]-2-methylphenyl}methanesulfonamide] as the compound, how does the IC50 [2] read?
A: 2310 nM

Q: Which IC50 [2] does the source give for `CSc1ccc(CN(Cc2ccc(Cl)cc2F)c2cccc(NS(C)(=O)=O)c2C)cc1` [Example 144, N-(3-{(4-chloro-2-fluorobenzyl)[4-(methylthio)benzyl]amino}-2-methylphenyl)methanesulfonamide] here?
A: 1300 nM

Q: `Cc1c(NS(C)(=O)=O)cccc1N(Cc1ccc(Oc2ccc(CCC(=O)O)cc2)cc1)Cc1ccc(Cl)cc1F` [Example 86, 3-(4-{4-[((4-chloro-2-fluorobenzyl){2-methyl-3-[(methylsulfonyl)amino]phenyl}amino)methyl]phenoxy}phenyl)propanoic acid] was tested. Which IC50 [2] did it give?
A: 216 nM

Q: With `Cc1c(NS(C)(=O)=O)cccc1N(Cc1ccccc1)Cc1ccc(Br)cc1` [Example 13, N-{3-[benzyl(4-bromobenzyl)amino]-2-methylphenyl}methanesulfonamide] as the compound, how does the IC50 [2] read?
A: 1860 nM

Q: With `Cc1c(NS(C)(=O)=O)cccc1N(Cc1ccccc1)Cc1ccc(Cl)cc1Cl` [Example 32, N-{3-[benzyl(2,4-dichlorobenzyl)amino]-2-methylphenyl}methanesulfonamide] as the compound, how does the IC50 [2] read?
A: 1730 nM

Q: For `Cc1c(NS(C)(=O)=O)cccc1N(Cc1ccccc1)Cc1ccc(Oc2ccc(CCCC(=O)NCC(=O)O)cc2)cc1` [Example 107, N-[4-(4-{4-[(benzyl{2-methyl-3-[(methylsulfonyl)amino]phenyl}amino)methyl]phenoxy}phenyl)butanoyl]glycine], which IC50 [2] is on record?
A: 743 nM

Q: `Cc1c(NS(C)(=O)=O)cccc1N(Cc1ccc(Oc2ccc(F)c(OCC(=O)O)c2)cc1)Cc1ccc(F)cc1F` [Example 305, (5-(4-(((2,4-difluorobenzyl)(2-methyl-3-((methylsulfonyl)amino)phenyl)amino)methyl)phenoxy)-2-fluorophenoxy)acetic acid] was tested. Which IC50 [2] did it give?
A: 8.9 nM

Q: Which IC50 [2] does the source give for `Cc1c(NS(C)(=O)=O)cccc1N(Cc1ccccc1)Cc1ccc(Oc2cccc(O)c2)cc1` [Example 115, N-(3-{benzyl[4-(3-hydroxyphenoxy)benzyl]amino}-2-methylphenyl)methanesulfonamide] here?
A: 165 nM

Q: For `Cc1c(NS(C)(=O)=O)cccc1N(Cc1ccc(Oc2ccc(Cl)c(OCC(=O)O)c2)cc1)Cc1ccc(Cl)cc1Cl` [Example 309, (2-chloro-5-(4-(((2,4-dichlorobenzyl)(2-methyl-3-((methylsulfonyl)amino)phenyl)amino)methyl)phenoxy)phenoxy)acetic acid], which inhibition at 1.7 µM [1] is on record?
A: 97.4%

Q: How did the inhibition at 1.7 µM [1] turn out when `CC[C@H](C)[C@H](NC(=O)CCCCOc1ccc(Oc2ccc(CN(Cc3ccccc3)c3cccc(NS(C)(=O)=O)c3C)cc2)cc1)C(=O)O` [Example 270, N-[5-(4-{4-[(benzyl{2-methyl-3-[(methylsulfonyl)amino]phenyl}amino)methyl]phenoxy}phenoxy)pentanoyl]-L-isoleucine] was run?
A: 91.1%
